Results as given in US7199216B1, “Peptide constructs for treating autoimmune and related diseases” (Cel-Sci Corporation, priority 1999, dated 2007).
No end group written: not given here.

Legend:
[1] = Immunogenicity of TCBL peptides judged by development of antibodies that react to the peptides; assay type: in vivo; conditions: judged by the lack of developing antibodies that react to these peptides
Source text: (§1) The antigenic portion My-1 of these constructs is immunogenic in several strains of mice and in rabbits.

A/J strain of mice = conditions: injected in the presence of adjuvant; cited from earlier work
several strains of mice = experiment: Immunogenicity in mice; assay type: in vivo
Source text: as §1

rabbits = experiment: Immunogenicity in rabbits; assay type: in vivo
Source text: as §1

| Substance | immunogenicity [1] | induction of myocarditis (A/J strain of mice) | immunogenicity (several strains of mice) | immunogenicity (rabbits) |
| --- | --- | --- | --- | --- |
| Asn Gly Gln Glu Glu (Xaa) Ala Gly Val Val Ser Thr Gly Leu Ile [m-G] | only poorly immunogenic |  |  |  |
| Asp Leu Leu Lys Asn Gly Glu Arg (Xaa) Glu Lys Val Glu [m-J] | only poorly immunogenic |  |  |  |
| DSAFDVLSFTAEEKAGVYK [myocardiogenic peptide derived from murine cardiac myosin heavy chain (amino acids 334–352)] |  | induce severe myocarditis | immunogenic | immunogenic |
| NGQEEKAGVVSTGLI (peptide G) [non-modified TCBL from the beta-2 domain of HLA/MHC class II molecule] | only poorly immunogenic |  |  |  |
